Data reported in PubChem BioAssay (NCI).
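These data come from cells grown in 96-well plates and exposed to compound for 48 hours at five concentrations. TGI: concentration producing complete growth inhibition.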

Experiments:
Assay in all cases: growth of human tumour cells (NCI), 48 h
[1] = tested on: DMS 114 small cell lung
[2] = tested on: DLD-1 colon
[3] = tested on: SF-268 CNS
[4] = tested on: SNB-78 CNS
[5] = tested on: DMS 273 small cell lung
[6] = tested on: KM12 colon
[7] = tested on: HCT-116 colon
[8] = tested on: M14 melanoma
[9] = tested on: M19-MEL melanoma
[10] = tested on: ACHN renal
[11] = tested on: CAKI-1 renal
[12] = tested on: XF 498 CNS
[13] = tested on: RXF-631 renal
[14] = tested on: HCT-15 colon
[15] = tested on: RPMI-8226 leukemia
[16] = tested on: HOP-92 NSCLC
[17] = tested on: T-47D breast
[18] = tested on: DU-145 prostate
[19] = tested on: MDA-MB-435
[20] = tested on: MDA-MB-231 breast

## O=c1nc2sc3ccc4ccccc4c3n2[nH]c1=O
[1]
  TGI: > 100 µM
[2]
  TGI: > 100 µM
[3]
  TGI: > 100 µM
[4]
  TGI: > 100 µM
[5]
  TGI: > 100 µM
[6]
  TGI: > 100 µM
[7]
  TGI: > 100 µM

## CCCCN=C1OCc2[nH][nH]c(=O)c21
[8]
  TGI: > 100 µM
[1]
  TGI: > 100 µM
[9]
  TGI: > 100 µM
[10]
  TGI: > 100 µM
[2]
  TGI: > 100 µM
[11]
  TGI: > 100 µM
[3]
  TGI: > 100 µM
[4]
  TGI: > 100 µM
[5]
  TGI: > 100 µM
[12]
  TGI: > 100 µM
[6]
  TGI: > 100 µM
[7]
  TGI: > 100 µM
[13]
  TGI: > 100 µM
[14]
  TGI: > 100 µM
[15]
  TGI: > 100 µM
[16]
  TGI: > 100 µM

## C[C@]12CC[C@@H]3c4ccc(OCCN5CCCC5)cc4CC[C@H]3[C@@H]1CCC2=O
[8]
  TGI: 29.4 µM
[10]
  TGI: > 100 µM
[17]
  TGI: > 100 µM
[18]
  TGI: > 100 µM
[11]
  TGI: 81.5 µM
[19]
  TGI: > 100 µM
[14]
  TGI: 29 µM
[15]
  TGI: > 100 µM
[16]
  TGI: > 100 µM
[20]
  TGI: 68.7 µM
